# In patent publication US20130296239A1, “Material for Wound Healing and Skin Reconstruction” (3-D Matrix, Ltd., priority 2007, published 2013):
# Several values for one entry are separate records, joined by “and”; a condition that tells them apart may be missing. Identical values can stand only once.
# Columns and labels:
# [1] = test system: skin wound model mice (1 cm×1 cm wound); test: Skin wound model of mice: wound area and observation of the affected area; assay type: in vivo, NTaC:NIHS-Foxn1 <nu> type nude mice
# Description: 30 NTaC:NIHS-Foxn1 type nude mice (female, weight ˜20 g) were used as experimental animals. The mice were housed in the condition of a temperature of 17 to 26° C., a relative humidity of 30 to 70%, a 12-hour light/dark cycle, minimum of ten fresh air changes/hour, and diet was provided once daily and the mice had access to water ad libitum.
# Anesthesia was induced by placing the mice in a chamber filled with isoflurane at 2.5 to 4%, and maintained with isoflurane delivered through a nose cone at 0.5 to 2.5%.
# All residual hair was removed from the upper right dorsum, and the operative area was cleaned with three alternating scrubs of povidone-iodine scrub and 70% alcohol. Once the alternating scrubs were complete, a final application of povidone-iodine scrub was applied and allowed to dry. The area was draped for aseptic surgery.
# Forceps were used to pinch up a fold of skin (at what would become the lower right corner of the wound), and scissors were used to separate the skin and create a 1 cm×1 cm wound. Blood was soaked up with a sterile gauze pad.
# (b-1) The centrifuge tube was placed into a cool water bath. The bath was sonicated for 30 min, and then the contents of the tube were vortexed for one minute. Air bubbles were then removed via centrifugation (3000 rpm, 1 min). Vortexing and centrifugation were repeated as necessary to remove all bubbles. The 1% PuraMatrix (trade mark) solution was prepared and administered to animals in test group-1.
# (b-2) The 5 ng/μL hbFGF PBS solution (20 μL) was added to the sterile centrifuge tube previously containing 1 mL of 1% PuraMatrix (trade mark). The mixture was then vortexed to homogenize. The centrifuge tube was placed into the cool water bath and sonicated for 30 min, vortexed for 1 min, then centrifuged at room temperature (3000 rpm, 1 min) to remove air bubbles. Vortexing and centrifugation were repeated as necessary to remove all air bubbles. The PuraMatrix+hbFGF solution obtained was administered to animals in the test group-2.
# The 30 skin wound model mice produced in (a) were divided into three groups of 10 mice, and treated according to the scheme in Table 1 immediately after the surgical procedure. The day when surgical procedure was performed (wound creation) was regarded as Day 0. Observation of wound area was performed at just before a treatment on Day 0 (FIG. 1), Day 7 (FIG. 2), Day 14 (FIG. 3), Day 21 (FIG. 4) and Day 28 (FIG. 5).
# Baseline wound measurements were recorded prior to the application of the first dressing. Weekly measurements were obtained by removing the dressing of self-assembling hydropeptide gel (for the control group, a petroleum jelly impregnated gauze only) and exposing the wound site. A ruler was placed adjacent to the wound area and digital photographs were obtained, thereafter, the wound was re-dressed with the self-assembling hydropeptide gel (for the control group, a petroleum jelly impregnated gauze only). Wound area was calculated using ImageJ version 1.37 at the NIH website.
# [2] = liquid when pH is not higher than 5.0; cited from earlier work
# [3] = test system: wound area of skin wound model mice; test: Histopathological observation of wound area on Day 28; assay type: in vivo, nude mice; design: key to Vascularization: 0: Decreased vascularity compared to normal dermis.; 1: Dermal vascularity within normal limits.; 2: Minimally increased prominence of dermal or wound capillaries.; 3: Mild increase in prominence of dermal or wound capillaries.; 4: Moderate increase in prominence of dermal or wound capillaries; key to Collagen quality: 0: Lack of fibroplasia and/or collagen in wound.; 1: Minimal to mild fibroplasia in the granulation tissue of the wound.; 2: Moderate fibroplasia and collagen throughout the wound.; 3: Superficial portion of the wound has dense collagen similar to normal dermal collagen.; 4: Dense collagen throughout the wound; key to Inflammation: 0: No increase in inflammatory cells (within normal limits for dermis of nude mice).; 1: Minimal increase in inflammatory cells.; 2: Mild increase in inflammatory cells.; 3: Moderate increase in inflammatory cells.; 4: Marked increase in inflammatory cells; key to Epithelization: 0: No re-epithelization.; 1: Partial re-epithelization. (Wound surface is not completely covered by epithelial cells.); 2: Re-epithelization across the full surface of the wound, but the epithelium is not a stratified squamous epithelium with multiple strata; 3: Re-epithelization across the full surface of the wound with a stratified squamous epithelium and keratinization, but there is evidence of active remodeling; 4: Complete re-epithelization with a keratinized stratified squamous epithelium with remodeling and organization within normal limits
# Description: In order to evaluate parameters of wound healing in the skin of nude mice from three groups, histopathological examination was carried out.
# After the observation on Day 28, each mouse was sacrificed and a paraffin block containing the wound area, through the center of each wound perpendicular to the apparent longest axis was produced. A hematoxylin and eosin-stained and a trichrome-stained histologic sections were prepared from each block. Using the H&E-stained section, the epithelization, vascularization, and inflammation associated with the wound were ranked, and using the trichrome-stained section the amount and quality of collagen in the area of the wound were evaluated. The results of these evaluations were shown in Table 2-1 (control group), Table 2-2 (test group-1), and Table 2-3 (test group-2).
# Definitions for each score are as follows.
# 0=No re-epithelization. 1=Partial re-epithelization. (Wound surface is not completely covered by epithelial cells.) 2=Re-epithelization across the full surface of the wound, but the epithelium is not a stratified squamous epithelium with multiple strata (stratum basale, stratum spinosum, stratum granulosum). 3=Re-epithelization across the full surface of the wound with a stratified squamous epithelium and keratinization, but there is evidence of active remodeling in the form of apoptotic or necrotic cells or dyskeratosis, or multiple mitotic figures, or irregular thickness or irregular strata (hyperplasia). 4=Complete re-epithelization with a keratinized stratified squamous epithelium with remodeling and organization within normal limits. (The only alteration is lack of hair follicles and adenexia in the dermis.)
# 0=Decreased vascularity compared to normal dermis. 1=Dermal vascularity within normal limits. […] Increased prominence may be due to increased number, dilation (congestion or hyperemia), or increased size. 3=Mild increase in prominence of dermal or wound capillaries. 4=Moderate increase in prominence of dermal or wound capillaries. <Inflammation> Inflammation consisted of increased number of neutrophils and macrophages in the dermis and scar tissue beneath the epidermis. […] 0=No increase in inflammatory cells (within normal limits for dermis of nude mice). 1=Minimal increase in inflammatory cells. Inflammation tends to be multifocal, perivascular. 2=Mild increase in inflammatory cells. Inflammation tends to be multifocal, perivascular. 3=Moderate increase in inflammatory cells. 4=Marked increase in inflammatory cells.
# 0=Lack of fibroplasia and/or collagen in wound. 1=Minimal to mild fibroplasia in the granulation tissue of the wound. 2=Moderate fibroplasia and collagen throughout the wound. 3=Superficial portion of the wound has dense collagen similar to normal dermal collagen. 4=Dense collagen throughout the wound. There are relatively fewer fibroblasts and the collagen is slightly denser than normal dermis.
# Depth of collagen (μm) beneath the epithelium in the wound was estimated at the thickest portion of the collagen using an ocular micrometer that was calibrated with an objective micrometer (×10).
# [4] = Day 28, compared to control group
# [5] = rank score, Day 28, H&E-stained section, one value per mouse
substance,measurement,setting,value
Ac-(RADA)4-CONH2 [PuraMatrix],wound area,"[1]; Day 7, compared to control group (FIG. 2)",decreased drastically
same,"healing rate (ratio of the wound area to the area when wound created, FIG. 6)","[1]; Day 7 and Day 14, compared to control group, 100 μL to wound area",healing more quickly than those in the control group
same,healing of the wound area,[1]; Day 14 (FIG. 3),almost complete
same,healing of the wounds,[1]; Day 21 (FIG. 4),completely healed
same,puckering of skin,"[1]; Day 21, compared to control group (FIG. 4)",less puckering of skin
same,scar,"[1]; Day 28, observation before dissection",visible in all animals
same,wound contraction noted,"[1]; Day 28, observation before dissection, all animals in control group (FIG. 5)",8/10
same,overall wound healing effect,[1]; conclusion from Day 0-28 observations,significant healing effect visibly recognized
same,pH at which the peptide solution forms a gel (self-assembles into nanofibers),[2],higher than 5.0
same,Collagen depth,"[3]; Day 28, beneath the epithelium at thickest portion of collagen, one value per mouse",550 μm (2×) and 250 μm (3×) and 470 μm and 500 μm (2×) and 540 μm and 200 μm
same,ranking of epithelization and vascularization across groups,"[3]; Day 28, compared across the three groups",little difference
same,mice with an inflammation rank 0,[3]; [4],larger numbers of mice
same,mice with dense collagen throughout the wound scar,[3]; [4],larger numbers of mice
same,typical state of wound area structure in pathological section,"[3]; Day 28, photomicrograph, compared to control group (FIG. 8, FIG. 9)",there is dense collagen so that the dermis 2 is slightly more stained
same,"mice with rank scores 4, 1, 0, 4 (most advanced wound healing)","[3]; Day 28, no mice in control group",one
same,Epithelization,[3]; [5],4 (5×) and 3 (5×)
same,Inflammation,[3]; [5],1 (5×) and 0 (3×) and 2 (2×)
same,Vascularization,[3]; [5],2 (6×) and 1 (4×)
same,Collagen quality,"[3]; rank score, Day 28, trichrome-stained section, one value per mouse",3 (3×) and 4 (7×)
